From patent US20050124557A1, “Use of benzothiazepines having activity as inhibitors of ileal bile acid transport for reducing cholesterololemia” (priority 2002, published 2005)
Structures can show the parent of a compound that is named as a salt.

What was measured:
[1] = test system: LDL receptor/ApoE deficient mice; assay: Combination study (experiment II): plasma lipids/lipoproteins after Compound (I), atorvastatin calcium salt or both; format: in vivo; details: for HDL, % Change compared to control group / LDL, % Change compared to control group / LP-remnants, % Change compared to control group: FPLC
Experimental: (§1) Compound (I) was dissolved in polyethanylglycol (PEG):ethanol:solutol:Water (4:1:0.5:8.5) vehicle and administered by gavage once a day in the afternoon.
(§2) Altogether 54 female LDL receptor/ApoE deficient mice were used (5 to 6 weeks old weighing 25 to 30 g at the start of the study; obtained from B&M/AS, Denmark). They were kept under standardized conditions with free access to water and chow. The light-cycle hours were between 6:00 a.m. and 6:00 p.m. In experiment I, the dose response study, the mice were treated with Compound (I) by gavage once a day in the afternoon the first three days and in the morning the last day. The control group on regular R^3-chow received the vehicle by gavage. […] The control group received R^3 chow and vehicle.
(§3) Mice were starved 3 hours before they were scarified at 10 a.m. Animals were anaesthetized with isofluran, bled by cardiac puncture, and thereafter killed by cervical dislocation. Blood was collected into EDTA containing tubes, plasma was separated by centrifugation and stored at −70° C.
(§4) Cholesterol in plasma and in FPLC on line measurement was performed with a commercial cholesterol kit from Roche Diagnostics, GmbH, Germany, Cholesterol, CHOD-PAP 1489437.
(§5) Triglycerides in plasma was measured by using a commercial reagent kit, from Roche Diagnostics, GmbH, Germany, Triglycerides/GB, 450032.
(§6) The cholesterol distribution profiles were measured by using a size exclusion high performance liquid chromatography system, SMART, with column Superose 6 PC 3.2/30, (Amersham Pharmacia Biotec, Uppsala, Sweden). The chromatographic system was linked to an air segmented continuous flow system for online post-derivatization analysis of total cholesterol by using enzymatic colorimetric reagents. The SMART-system was connected to a sample injector, (Gina 50, Gynkotek HPLC, Germering, GmbH). Elution buffer consisted of 0.01M Tris, 0.03 M NaCl, pH 7.40, flow rate […]. The on line flow system was equipped with a peristaltic pump, flow rate 0.7 ml/min, and an incubation coil for 8 minutes at 37° C. The absorbance was measured at […] with a UV/VIS detector, (Jasco UV-970, Jasco International Co, Ltd, Japan). Data were integrated with a Chromeleon chromatography data system (Gynkotek HPLC, Germering GmbH). The distribution of lipoproteins was continuously measured as total cholesterol by using enzymatic calorimetric reagent, reconstituted in water, double volume compared to manufacturer instructions. The commercial kits were from Roche Diagnostics, GmbH, Germany, Cholesterol, CHOD-PAP 1489437. The separation was performed within 60 minutes on a 10 μl sample. The integrated area of the fractions was expressed in molar concentration. The various peaks in the profiles are designated LP-remnants, LDL, and HDL for simplicity, even though it is clear that the separation is determined primarily by the size of the lipoproteins.

[2] = test system: LDL receptor/ApoE deficient mice; assay: Dose response study (experiment I): plasma lipids/lipoproteins after Compound (I) by gavage; format: in vivo; details: for Chol (plasma total cholesterol), % Change compared to control group / LP-remnants + LDL/HDL, % Change compared to control group / TG (plasma triglycerides), % Change compared to control group / HDL, % Change compared to control group / LDL, % Change compared to control group / LP-remnants, % Change compared to control group: three days, gavage
Experimental: as §1, §2, §3, §4, §5, §6
With the aim to determine the effect of the BAT inhibitor, Compound (I), on the level of plasma lipids in LDL receptor/ApoE deficient mice, groups of animals received vehicle or Compound (I) at increasing doses (0.62, 2.5, 10 and 40 μmol/kg/day) for 3.5 days. […] To analyze plasma lipoproteins in detail, plasma lipoprotein patterns were generated after separation of plasma by FPLC.

[3] = FPLC analysis of plasma, 7 days
[4] = one week, Compound (I) 10 μmol/kg/day by gavage, atorvastatin calcium salt 0.05% in chow
[5] = FPLC, dose not stated in the sentence (Table 1: 40 μmol/kg/day)

`CC(C)c1c(C(=O)Nc2ccccc2)c(-c2ccccc2)c(-c2ccc(F)cc2)n1CC[C@@H](O)C[C@@H](O)CC(=O)O` [Atorvastatin calcium salt, reference compound] was tested, and the “reduction of LDL cholesterol” value [1, 3] was 44%, the “LP-remnants + LDL/HDL, % Change compared to control group” value (from here on “LP-remnants + LDL/HDL, % Change”) [1, 4] was 2% and the “HDL, % Change compared to control group” value [1, 4] was −22%. For the same compound, the “LDL, % Change compared to control group” value [1, 4] was −43% and the “LP-remnants, % Change compared to control group” value (from here on “LP-remnants, % Change”) [1, 4] was −2%.
For `CCCC[C@]1(CC)CS(=O)(=O)c2cc(O[C@@H]3O[C@H](C(=O)O)[C@@H](O)[C@H](O)[C@H]3O)ccc2[C@@H](c2ccccc2)N1` [Compound (I), (3R,5R)-3-butyl-3-ethyl-1,1-dioxido-5-phenyl-2,3,4,5-tetrahydro-1,4-benzothiazepin-8-yl β-D-glucopyranosiduronic acid], the “Chol (plasma total cholesterol), % Change compared to control group” value (“Chol … % Change compared to control group” below) ([2]; 0.625 μmol/kg/day) was −9%, the “LP-remnants + LDL/HDL, % Change” value ([2]; 0.625 μmol/kg/day) was −30% and the “TG (plasma triglycerides), % Change compared to control group” value (from here on “TG (plasma triglycerides), % Change”) ([2]; 0.625 μmol/kg/day) was 13%. For the same compound, the “HDL, % Change compared to control group” value ([2]; 0.625 μmol/kg/day, FPLC) was 29%, the “LDL, % Change compared to control group” value ([2]; 0.625 μmol/kg/day, FPLC) was 8% and the “LP-remnants, % Change” value ([2]; 0.625 μmol/kg/day, FPLC) was −27%. The “Chol … % Change compared to control group” value ([2]; 10 μmol/kg/day) was −35%, the “LP-remnants + LDL/HDL, % Change” value ([2]; 10 μmol/kg/day) was −55% and the “TG (plasma triglycerides), % Change” value ([2]; 10 μmol/kg/day) was 23%. For the same compound, the “HDL, % Change compared to control group” value ([2]; 10 μmol/kg/day, FPLC) was 36%, the “LDL, % Change compared to control group” value ([2]; 10 μmol/kg/day, FPLC) was −20% and the “LP-remnants, % Change” value ([2]; 10 μmol/kg/day, FPLC) was −54%. For the same compound, the “Chol … % Change compared to control group” value ([2]; 40 μmol/kg/day) was −40%, the “LP-remnants + LDL/HDL, % Change” value ([2]; 40 μmol/kg/day) was −62% and the “TG (plasma triglycerides), % Change” value ([2]; 40 μmol/kg/day) was 8%. For the same compound, the “HDL, % Change compared to control group” value ([2]; 40 μmol/kg/day, FPLC) was 45%, the “LDL, % Change compared to control group” value ([2]; 40 μmol/kg/day, FPLC) was −23% and the “LP-remnants, % Change” value ([2]; 40 μmol/kg/day, FPLC) was −63%. For the same compound, the “Plasma triglycerides (in words)” value ([2]; 0.62-40 μmol/kg/day, 3.5 days) was “not significantly altered”, the “HDL cholesterol (in words)” value ([2]; FPLC) was “no reduction” and the “reduction in plasma cholesterol in LDL fraction” value [2, 5] was 23%. The “reduction in plasma cholesterol in LP-remnants fraction” value [2, 5] was 63%, the “reduction of total plasma cholesterol” value ([2]; highest dose (40 μmol/kg/day), 3.5 days) was 40% and the “increase in HDL cholesterol” value ([1]; 7 days) was 22%. The “effect on the plasma triglyceride level (in words)” value ([1]; 7 days, Compound (I) 10 μmol/kg/day alone) was “no effect”, the “reduction of total plasma cholesterol” value ([1]; 7 days, atorvastatin calcium salt 0.05% in diet (approximately 80-100 mg/kg/day), Compound (I) 10 μmol/kg/day) was 40% and the “reduction of LDL cholesterol” value [1, 3] was 30%. The “reduction of LP-remnants cholesterol” value [1, 3] was 62%, the “Chol … % Change compared to control group” value [1, 4] was −42% and the “LP-remnants + LDL/HDL, % Change” value [1, 4] was −54%. The “TG (plasma triglycerides), % Change” value [1, 4] was 7%, the “HDL, % Change compared to control group” value [1, 4] was 22% and the “LDL, % Change compared to control group” value [1, 4] was −29%. The “LP-remnants, % Change” value [1, 4] was −62%.
